Square brackets hold non-standard residues; d marks the D form. Peptide text beside a SMILES is read from it. * marks the point of attachment. Sta = CC(C)C[C@H](N)[C@@H](O)CC(=O)O; Isovaleryl = CC(C)CC(=O)*
Experiments:
[1] = cited from earlier work
[2] = preliminary 12-day toxicity study of aerosolized fosamprenavir; format: in vivo, mice; details: 12-day exposure
Method: In the following Example, the inventors used a small-scale powder disperser (SSPD) to aerosolize Fosamprenavir powder, and monitored particle size distribution by an Optical Particle Sizer (OPS). The SSPD inhales the powder through a venturi aspirator, which is then sampled through OPS at 1 L/min of flow (FIG. 11).
A preliminary 12-day toxicity study was conducted in mice. […] This was the only animal affected, across 15 treated mice, so this is suspected to be unrelated to the fosamprenavir treatment.

[3] = tested on: 14 relevant biomarkers for inflammation and toxicity; experiment: Luminex assay of bronchiolar lavage samples; format: in vivo, mice; details: control versus lowest dose
From the text: Bronchiolar lavage samples were collected from all mice and a Luminex assay was used to measure 14 relevant biomarkers for inflammation and toxicity.

[4] = tested on: mouse model of laryngopharyngeal reflux (LPR); experiment: in vivo mouse model of LPR (laryngeal wounding and pepsin instillation, H&E histology); details: for laryngeal histology (H&E) / pepsin-mediated laryngeal injury: pepsin pH7 group; for laryngeal histology (H&E): solvent (saline/PBS pH7) group
From the text: An in vivo mouse model of direct application of pepsin, to mimic laryngeal exposure during LPR, and treatment with select HIV protease inhibitors by either gavage (oral systemic delivery) or aerosolized delivery (inhaled local delivery) was used. […] Each group contained 3 mice. Six-week-old female Jackson A/J mice (Jackson Laboratory, Bar Harbor, ME), weighed one day after arrival, then weekly, on Mondays thereafter.
Avertin was the preferred anesthetic for the brief application time needed as it has a rapid induction, produces a short surgical anesthesia, and has a rapid recovery. […] For this experiment, isoflurane inhalation was used. The isoflurane, self-scavenging machine, was operated at 3% isoflurane with 2.5 liters of air per minute (LPM). The induction chamber was charged for 3-5 minutes prior to the mice being anesthetized. Mice were placed in the induction chamber for 3-5 minutes prior to any wounding or administrations. Anesthesia records were kept according to IACUC policy.
Animals secured by a copper wire attached to the board from which the mice were suspended by their upper teeth. This caused the lower jaw to fall open naturally, exposing the larynx and permitting visualization with a Zeiss microscope at 6× magnification. […] Under direct visualization, the subglottis, glottis, and supraglottis regions were superficially scratched interiorly from distal to proximal as the needle was pulled out gently, making a mild abrasion. This procedure was performed twice, with one week between woundings.
To examine the effect pepsin at acid and nonacid pH, animals were treated for 2 weeks with laryngeal instillation of pepsin (20 μL at 0.3 mg/ml, pH 7.0 or pH 4.0) at 24, 48, and 72 h post wounding procedure. During weeks 3 and 4, animals were treated with laryngeal instillation for 3 days per week. Mice were sacrificed and samples collected on Friday of the fourth week.
The twelve mice in the aerosol groups were condition in the nose-only exposure chamber (Intox) on three separate days by exposure to dry air for 10 min. Beginning the Monday (day 1) of the next week, aerosols and gavages were performed on the mice Monday through Friday (5 exposures). The aerosols and gavages continued Monday-Friday for three more weeks, with the final week consisting of 4 total exposure days, Monday-Thursday, (19 total) with the mice sacrificed and tissues harvested on Friday. Each mouse received two woundings and 12 solvent or pepsin administrations. Wounding and intratracheal administrations were concurrent with the aerosol and gavage treatments. The first wounding was performed on day 2, followed by solvent or pepsin administrations on days 3, 4, and 5. The second wounding was performed on day 8, followed by solvent or pepsin administrations on days 9, 10, and 11. In weeks 3 and 4, mice received solvent or pepsin administrations on days 16, 17, and 18 and days 23, 24, and 25. Day 26 was sacrifice and tissue harvest.
A 10 mL suspension of drug in ethanol was placed in the baffle, such that the concentration would remain constant at the equilibrium solubility. Droplets of ethanol containing dissolve drug were generated by an ultrasonic atomizer (nominal frequency 1.7 MHz) entrained by air at a flow rate of 0.5 LPM with a custom-built glass baffle (University of Minnesota, Department of Chemistry Glass Shop). The aerosol cloud was then passed through a cylindrical drying column containing an annular ring of charcoal. The ethanol is removed and the emanating dry aerosol particles of pure drug were then directed into the exposure chamber.
The mass deposited on the filters in a fixed collection time was measured gravimetrically, and with the collection time, allowed calculation of the total output rate (mg/min). The aerosol concentration (mass/volume of air) was calculated by dividing the total output rate by the air flow rate (0.5 LPM).

[5] = known clinical profile; cited from earlier work
pepsin = details: Roberts 2003; cited from earlier work
[6] = cited from earlier work; remark: listed apart in the source

CC(C)CN(C[C@@H](OP(=O)(O)O)[C@H](Cc1ccccc1)NC(=O)O[C@H]1CCOC1)S(=O)(=O)c1ccc(N)cc1 [fosamprenavir, [(3 S)-oxolan-3-yl]N-[(2S,3R)-4-[(4-aminophenyl)sulfonyl-(2-methylpropyl)amino]-1-phenyl-3-phosphonooxybutan-2-yl]carbamate]
pharmacokinetics ([1]; in mice): excellent pharmacokinetics
oral bioavailability ([1]; prodrug compared with amprenavir): improved oral bioavailability
pathology in nasal cavity, larynx, esophagus, trachea, lung, liver, and kidney tissues ([2]; mice): No pathology was observed
heart pathology ([2]; one of 15 treated mice, suspected to be unrelated to treatment): significant inflammation
IL-6 in bronchiolar lavage [3]: showed significance
laryngeal histology (H&E) / pepsin-mediated laryngeal injury ([4]; aerosol): normal histology
laryngeal histology (H&E) ([4]; aerosol): normal histology
laryngeal histology (H&E) / pepsin-mediated laryngeal injury ([4]; gavage): normal histology
laryngeal histology (H&E) ([4]; gavage): normal histology
pepsin-mediated laryngeal injury (multi-layered, reactive epithelia and cell apoptosis) ([4]; inhalation, 1 mg/kg/d): prevented pepsin mediated laryngeal injury
side effects / tolerability [5]: favorable tolerability profile

CC(C)CC(=O)N[C@H](C(=O)N[C@H](C(=O)N[C@@H](CC(C)C)[C@@H](O)CC(=O)N[C@@H](C)C(=O)N[C@@H](CC(C)C)[C@@H](O)CC(=O)O)C(C)C)C(C)C [pepstatin] (Isovaleryl-VV[Sta]A[Sta]-OH)
affinity for pepsin (pepsin): subnanomolar
water solubility [6]: poor water-solubility

Reference: patent publication US12678453B2, “Aerosolized formulations of HIV protease inhibitors for the treatment of airway reflux” (The Medical College of Wisconsin, Inc., priority 2020, dated 2026)
